Patent US11219627B2, “Clearance of amyloid beta” (priority 2014, dated 2022)

How the values were obtained:
[1] = system: mild to moderate Alzheimer patients; conditions: 78-week study; cited from earlier work
[2] = liver microsome stability; assay type: in vitro ADME, Mouse; conditions: 5.0 μM, Mouse
[3] = system: Primary rat cultured cortical neurons; conditions: cited from earlier work
[4] = system: CaCo-2 cells; assay: in vitro permeability of a layer of CaCo-2 cells; assay type: in vitro ADME, human; conditions: test conc 50 μM
[5] = 78-week study; cited from earlier work
[6] = system: γ-secretase; conditions: cited from earlier work
[7] = system: γ-secretase; conditions: in vivo; cited from earlier work
[8] = system: adrenal chromaffin and human neuroblastoma cells; conditions: cited from earlier work
[9] = system: Rat cortical neurons; assay: neurite network assessment with Aβ1-42 oligomers in cortical cell culture; assay type: cell-based; conditions: 50 ng/ml, positive control
Method: Rat cortical neurons were cultured as described by Callizot et al (J Neurosci Res 2013, 91:706-716). On day 11 of culture, Aβ oligomer solution, 20 μM, was applied. The Aβ oligomer preparation, having an average weight of 90 kDa, prepared as described by Callizot et al (op cit) contained only diffusible species, not fibrils or protofibrils. Briefly, Aβ1-42 peptide at a concentration of 40 μM was dissolved in the culture medium, gently agitated for 3 days at 37° C. in the dark, and used immediately after dilution. SDL 11349 and BDNF (50 ng/ml) were dissolved in culture medium (maximum of 0.1% DMSO final concentration) then pre-incubated with primary cortical neurons for 24 h before the Aβ1-42 oligomer solution application.
The oligomers were incubated with the neurons and various concentrations of SDL 11349, or BDNF, 50 ng/ml, the positive control, for 24 hours, in 6 replicates per condition. Then the supernatant was removed and the neurons were fixed with a cold ethanol and acetic acid solution. The cells were permeabilized with 0.1% saponin and then incubated for 2 h with mouse monoclonal antibody […] microtubule-associated protein 2 (MAP-2). Subsequently, Alexa-Fluor 488 goat anti-mouse IgG was applied, and images were obtained and analyzed automatically.

O[C@H]1[C@H](O)[C@@H](O)[C@H](O)[C@@H](O)[C@@H]1O [ELND005, scyllo-inositol]
CSF Aβ and ventricular volume [1]: Significant decreases in CSF Aβ and increases in ventricular volume
cognitive or behavioral tests [1]: no benefit on any cognitive or behavioral test

COc1ccc2c3c1O[C@H]1C[C@@H](O)C=C[C@@]31CCN(C)C2 [Galanthamine HBr]
NADPH-dependent T1/2 (half-life) [2]: >60 min
NADPH-free T1/2 (half-life) [2]: >60 min

CN1CCCC1c1cccnc1 (centres unmarked) [Nicotine]
protection against Aβ plus glutamate toxicity [3]: protective against Aβ plus glutamate toxicity

CNC(=C[N+](=O)[O-])NCCSCc1ccc(CN(C)C)o1 [Ranitidine]
mean A−>B Papp (apparent permeability) [4]: 1.1 10^−6 cm s^−1

NCCCS(=O)(=O)O [Tramiprosate]
ADAS-cog [5]: trend towards improvement on the ADAS-cog
hippocampal volume [5]: reduction of hippocampal volume loss

NC(=O)[C@@H](CCC(F)(F)F)N(Cc1ccc(-c2ncon2)cc1F)S(=O)(=O)c1ccc(Cl)cc1 [avagacestat]
CSF Aβ40 ([6]; human, in vivo): effectively reduces CSF Aβ40
conversion to dementia ([6]; prodromal Alzheimer's disease, reduced CSF Aβ42): no reduction in conversion to dementia

CC(C)[C@H](O)C(=O)N[C@@H](C)C(=O)N[C@@H]1C(=O)N(C)CCc2ccccc21 [semagacestat]
CSF Aβ [7]: potently decreased CSF Aβ
reason for termination of Phase III trials [7]: poorer performance in treated than placebo patients, and an increased incidence of skin cancer

Nc1c2c(nc3ccccc13)CCCC2 [tacrine]
neuroprotective effect [8]: did not occur

B1: BDNF: brain-derived neurotrophic factor, positive control, gold standard of the neurite assay (protein, UniProt P23560 19-247, looked up)
Neurotrophic factor BDNF …: APMKEANIRGQGGLAYPGVRTHGTLESVNGPKAGSRGLTSLADTFEHVIEELLDEDQKVRPNEENNKDADLYTSRVMLSSQVPLEPPLLFLLEEYKNYLDAANMSMRVRRHSDPARRGELSVCDSISEWVTAADKKTAVDMSGGTVTVLEKVPVSKGQLKQYFYETKCNPMGYTKEGCRGIDKRHWNSQCRTTQSYVRALTMDSKKRIGWRFIRIDTSCVCTLTIKRGR
effect on Aβ oligomer-induced loss of neurite network [9]: preserves the neurite network
